Laboratory results published in paper PMC9697198, “Carbonic Anhydrase Inhibition Activities of Schiff’s Bases Based on Quinazoline-Linked Benzenesulfonamide” (Molecules, 2022).

Assays:
hCA I = hCA I (Homo sapiens, UniProt P00915); test: hCA I inhibition, stopped-flow assay; assay type: biochemical; conditions: stopped-flow technique; mean from three different assays, errors ±5–10%
hCA II = hCA II (Homo sapiens, UniProt P00918); test: hCA II inhibition, stopped-flow assay; assay type: biochemical; conditions: stopped-flow technique; mean from three different assays, errors ±5–10%
hCA IX = hCA IX (Homo sapiens, UniProt Q16790); test: hCA IX inhibition, stopped-flow assay; assay type: biochemical; conditions: for Selectivity Analysis hCA I/IX / Selectivity Analysis hCA II/IX: selectivity index (SI); for Selectivity Analysis hCA I/IX: ratio of Ki hCA I to Ki hCA IX; for Selectivity Analysis hCA II/IX: ratio of Ki hCA II to Ki hCA IX; for Ki: stopped-flow technique, mean from three different assays, errors ±5–10%
hCA XII = hCA XII (Homo sapiens, UniProt O43570); test: hCA XII inhibition, stopped-flow assay; assay type: biochemical; conditions: for Selectivity Analysis hCA I/XII / Selectivity Analysis hCA II/XII: selectivity index (SI); for Selectivity Analysis hCA I/XII: ratio of Ki hCA I to Ki hCA XII; for Selectivity Analysis hCA II/XII: ratio of Ki hCA II to Ki hCA XII; for Ki: stopped-flow technique, mean from three different assays, errors ±5–10%
hCA XII, sequence (O43570 25-354): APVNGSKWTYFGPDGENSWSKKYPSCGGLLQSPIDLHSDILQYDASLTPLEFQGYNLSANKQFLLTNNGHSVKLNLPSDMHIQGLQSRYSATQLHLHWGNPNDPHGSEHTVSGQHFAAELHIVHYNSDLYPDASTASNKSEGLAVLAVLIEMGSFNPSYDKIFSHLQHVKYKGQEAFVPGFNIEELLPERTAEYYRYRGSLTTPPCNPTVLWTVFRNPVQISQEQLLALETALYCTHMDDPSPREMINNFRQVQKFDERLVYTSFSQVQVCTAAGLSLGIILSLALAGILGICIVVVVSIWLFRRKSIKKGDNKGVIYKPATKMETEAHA

hCA I, sequence (P00915 whole entry): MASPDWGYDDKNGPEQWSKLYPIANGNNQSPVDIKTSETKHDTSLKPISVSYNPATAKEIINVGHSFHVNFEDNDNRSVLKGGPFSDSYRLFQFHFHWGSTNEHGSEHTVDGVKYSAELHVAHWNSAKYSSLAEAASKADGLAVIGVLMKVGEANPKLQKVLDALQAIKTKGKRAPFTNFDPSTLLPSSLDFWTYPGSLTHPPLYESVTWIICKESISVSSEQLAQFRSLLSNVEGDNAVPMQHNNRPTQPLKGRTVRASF

| Ki (hCA I) [nM] | Ki (hCA II) [nM] | Selectivity Analysis hCA I/IX (hCA IX) | Selectivity Analysis hCA II/IX (hCA IX) | Ki (hCA IX) [nM] | Selectivity Analysis hCA I/XII (hCA XII) | Selectivity Analysis hCA II/XII (hCA XII) | Ki (hCA XII) [nM] | melting point [°C] | Compound |
| --- | --- | --- | --- | --- | --- | --- | --- | --- | --- |
| 627 | 126 | 14.28 | 2.87 | 43.9 | 10.90 | 2.19 | 57.5 | 288 to 290 | CC(=NNC(=O)CSc1nc2ccccc2c(=O)n1CCc1ccc(S(N)(=O)=O)cc1)c1ccc(C)cc1 [Compound 25, 4-(2-(4-Oxo-2-((2-oxo-2-(2-(1-(p-tolyl)ethylidene)hydrazineyl)ethyl)thio)quinazolin-3(4H)-yl)ethyl)benzenesulfonamide] |
| 52.8 | 22.8 | 0.77 | 0.33 | 68.2 | 1.85 | 0.80 | 28.5 | 300 to 301 | CC(=NNC(=O)CSc1nc2ccccc2c(=O)n1CCc1ccc(S(N)(=O)=O)cc1)c1ccccn1 [Compound 26, 4-(2-(4-Oxo-2-((2-oxo-2-(2-(1-(pyridin-2-yl)ethylidene)hydrazineyl)ethyl)thio)quinazolin-3(4H)-yl)ethyl)benzenesulfonamide] |
| 2260 | 165 | 45.85 | 3.35 | 49.2 | 40.35 | 2.95 | 55.9 | 296 to 297 | NS(=O)(=O)c1ccc(CCn2c(SCC(=O)NN=Cc3c(Cl)cccc3Cl)nc3ccccc3c2=O)cc1 [Compound 9, 4-(2-(2-((2-(2-(2,6-Dichlorobenzylidene)hydrazineyl)-2-oxoethyl)thio)-4-oxoquinazolin-3(4H)-yl)ethyl)benzenesulfonamide] |
| 940 | 251 | 35.6 | 9.51 | 26.4 | 20.39 | 5.45 | 46.1 | 288 to 290 | NS(=O)(=O)c1ccc(CCn2c(SCC(=O)NN=Cc3ccccc3Cl)nc3ccccc3c2=O)cc1 [Compound 5, 4-(2-(2-((2-(2-(2-Chlorobenzylidene)hydrazineyl)-2-oxoethyl)thio)-4-oxoquinazolin-3(4H)-yl)ethyl)benzenesulfonamide] |
| 152 | 52.6 |  |  | 61.7 |  |  | 38.4 | 296 to 298 | NS(=O)(=O)c1ccc(CCn2c(SCC(=O)N/N=C/c3ccccc3)nc3ccccc3c2=O)cc1 [Compound 4, 4-(2-(2-((2-(2-Benzylidenehydrazineyl)-2-oxoethyl)thio)-4-oxoquinazolin-3(4H)-yl)ethyl)benzenesulfonamide] |
| 208 | 23.8 | 5.5 | 0.63 | 37.8 | 10.0 | 1.14 | 20.8 | 263 to 264 | NS(=O)(=O)c1ccc(CCn2c(SCC(=O)NN=Cc3cccnc3)nc3ccccc3c2=O)cc1 [Compound 16, 4-(2-(4-Oxo-2-((2-oxo-2-(2-(pyridin-3-ylmethylene)hydrazineyl)ethyl)thio)quinazolin-3(4H)-yl)ethyl)benzenesulfonamide] |
| 1360 | 698 | 13.6 | 7.01 | 99.6 | 15.27 | 7.86 | 88.8 | 302 to 303 | CC(=NNC(=O)CSc1nc2ccccc2c(=O)n1CCc1ccc(S(N)(=O)=O)cc1)c1ccc(Br)cc1 [Compound 20, 4-(2-(2-((2-(2-(1-(4-Bromophenyl)ethylidene)hydrazineyl)-2-oxoethyl)thio)-4-oxoquinazolin-3(4H)-yl)ethyl)benzenesulfonamide] |
| 635 | 221 | 23.62 | 8.20 | 26.9 | 20.83 | 7.23 | 30.5 | 296 to 297 | NS(=O)(=O)c1ccc(CCn2c(SCC(=O)NN=Cc3ccc([N+](=O)[O-])cc3)nc3ccccc3c2=O)cc1 [Compound 14, 4-(2-(2-((2-(2-(4-Nitrobenzylidene)hydrazineyl)-2-oxoethyl)thio)-4-oxoquinazolin-3(4H)-yl)ethyl)benzenesulfonamide] |
| 274 | 35.8 | 13.91 | 1.81 | 19.7 | 11.96 | 1.56 | 22.9 | 276 to 277 | NS(=O)(=O)c1ccc(CCn2c(SCC(=O)NN=Cc3ccccc3F)nc3ccccc3c2=O)cc1 [Compound 10, 4-(2-(2-((2-(2-(2-Fluorobenzylidene)hydrazineyl)-2-oxoethyl)thio)-4-oxoquinazolin-3(4H)-yl)ethyl)benzenesulfonamide] |
| 2350 | 433 | 107 | 19.67 | 22 | 26.33 | 4.84 | 89.4 | 304 to 305 | NS(=O)(=O)c1ccc(CCn2c(SCC(=O)NN=Cc3ccc(Cl)cc3Cl)nc3ccccc3c2=O)cc1 [Compound 7, 4-(2-(2-((2-(2-(2,4-Dichlorobenzylidene)hydrazineyl)-2-oxoethyl)thio)-4-oxoquinazolin-3(4H)-yl)ethyl)benzenesulfonamide] |
| 563 | 157 | 8.67 | 2.41 | 65 |  | 2.56 | 61.2 | 278 to 280 | CC(=NNC(=O)CSc1nc2ccccc2c(=O)n1CCc1ccc(S(N)(=O)=O)cc1)c1ccc(Cl)cc1 [Compound 23, 4-(2-(2-((2-(2-(1-(4-Chlorophenyl)ethylidene)hydrazineyl)-2-oxoethyl)thio)-4-oxoquinazolin-3(4H)-yl)ethyl)benzenesulfonamide] |
| 87.6 | 16.9 | 1.68 | 0.32 | 52.1 | 16.22 | 3.12 | 5.4 | 253 to 254 | NNC(=O)CSc1nc2ccccc2c(=O)n1CCc1ccc(S(N)(=O)=O)cc1 [Compound 3, 4-(2-(2-((2-Hydrazineyl-2-oxoethyl)thio)-4-oxoquinazolin-3(4H)-yl)ethyl)benzenesulfonamide] |
| 1830 | 325 | 52.5 | 9.33 | 34.8 | 28.81 | 5.12 | 63.4 | 271 to 272 | NS(=O)(=O)c1ccc(CCn2c(SCC(=O)NN=Cc3ccc(Cl)c(Cl)c3)nc3ccccc3c2=O)cc1 [Compound 8, 4-(2-(2-((2-(2-(3,4-Dichlorobenzylidene)hydrazineyl)-2-oxoethyl)thio)-4-oxoquinazolin-3(4H)-yl)ethyl)benzenesulfonamide] |
| 124 | 67.5 | 2.23 | 1.21 | 55.7 | 9.78 | 5.31 | 12.7 | 260 to 261 | CC(=NNC(=O)CSc1nc2ccccc2c(=O)n1CCc1ccc(S(N)(=O)=O)cc1)c1ccccc1 [Compound 17, 4-(2-(4-Oxo-2-((2-oxo-2-(2-(1-phenylethylidene)hydrazineyl)ethyl)thio)quinazolin-3(4H)-yl)ethyl)benzenesulfonamide] |
